Assay results published in US20240248442A1, “COMPUTER-IMPLEMENTED METHOD FOR APPLYING A GLUTAMINE […] ON AN AG[…]” (BASF SE, priority 2021, published 2024).

System: GLXMA (Glycine max; soybean plant)
Assay: Greenhouse spray test of glufosinate efficacy on soybean plants under different nitrogen supply
Assay type: in vivo
Conditions: GF-solution 280 g/l glufosinate-ammonium, 300 g a.i./ha, water rate 200 l/ha, assessed 3 and 7 daa (time of this value not stated)
Protocol: GLXMA (Glycine max; soybean plant) plants were grown on soil in a green house. Before separation into single pots plants were watered with demineralized water (VE-water). After separation into single pots and splitting into four different nourishing groups, the pots were individually watered with 50 ml of the respective nutrient solution. The following recipe for the full-nutrient solution (5 mM N) mentioned in the book “Diagnose des Ernährungszustandes von Kulturpflanzen”, ISBN: 978-3-86263-118-6, table 3-2, page 94 has been used:
Plants were grown until the growth stage GS 61 (58-74 cm), where first symptoms of nutrient deficiency became visible. This included yellowing of the leaves which were watered with N-deficient media.
A spray application was performed in a high speed spray cabin with the following settings: used nozzle: TT 110 02; pressure: 3 bar; speed: 1.33 m/s; temperature: 22° C.; relative spray humidity: 55%
Spray solution: A GF-solution comprising 280 g/l glufosinate-ammonium is sprayed with an a.i. dose rate of 300 g/ha and a water rate of 200 l/ha. The control plants were sprayed with water (ddH2O) only. After spraying, all plants were watered with VE-water. A biological assessment was performed 3 and 7 days after application (daa).
In other words, to achieve an N-deficiency, the plants were separated in four different groups, which were watered with 4 different nutrient solutions. The “full” medium contained a final concentration of 5 mM N nitrogen-sources, whereas the N-deficiency media contained either 0 mM N (“null” medium) or 1.25 mM N and 2.5 mM N (“deficiency” media). Nutrient deficiency became visible at the GS 61.
In FIGS. 2 and 3, GLXMA is Glycine max (soybean plant), G ai/ha is grams of active ingredient per hectare, CWD is the control group without treatment, GF-Solution is the solution comprising 280 g/l glufosinate-ammonium. At full (5 mM) or half full (2.5 mM) nitrogen supply was detected and rated to an average of 35. Lowering the nitrogen supply to a level of 1.25 mM increases the efficacy of glufosinate to 48, which is visibly by more chlorotic and necrotic tissue. Under complete nitrogen deficiency the symptoms are boosted and result in an average efficacy rating of 75.

`CP(=O)(O)CCC(N)C(=O)O` (racemic) [glufosinate, (2RS)-2-amino-4-[hydroxy-(methyl)phosphinoyl]butyric acid] was tested, and the “average efficacy rating (biological assessment)” value (complete nitrogen deficiency (0 mM N)) was 75, the “average efficacy rating (biological assessment)” value (full (5 mM) nitrogen supply) was 35 and the “average efficacy rating (biological assessment)” value (half full (2.5 mM) nitrogen supply) was 35. The “average efficacy rating (biological assessment)” value (nitrogen supply 1.25 mM) was 48.
